Data on 18 compounds can be found in patent US9499538B2, “Estrogen receptor modulators and uses thereof” (Seragon Pharmaceuticals, Inc., priority 2012, dated 2016).

pIC50: −log10 of the molar value.

Assay [1] relates to MCF-7 cells. The experiment in a line: Breast Cancer Cell Viability Assays (MCF-7, CellTiter-Glo). It counts as cell-based. To be noted: 5 days' compound exposure; for pIC50: Homo sapiens, MCF7, 120 h. A digest of the protocol:
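MCF-7 cells (320/well, RPMI with 10% FBS) exposed for 5 days to an eleven-point semilog series, 0.3–0.000003 μM final. Viability read by CellTiter-Glo luminescence, expressed as background-corrected percent of untreated cells.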

Assay [2] has as its target T1, ER-α in MCF-7 cells (Homo sapiens, UniProt P03372).
T1 construct: endogenous in cells; host or cells: MCF-7
T1 sequence (P03372 1-595): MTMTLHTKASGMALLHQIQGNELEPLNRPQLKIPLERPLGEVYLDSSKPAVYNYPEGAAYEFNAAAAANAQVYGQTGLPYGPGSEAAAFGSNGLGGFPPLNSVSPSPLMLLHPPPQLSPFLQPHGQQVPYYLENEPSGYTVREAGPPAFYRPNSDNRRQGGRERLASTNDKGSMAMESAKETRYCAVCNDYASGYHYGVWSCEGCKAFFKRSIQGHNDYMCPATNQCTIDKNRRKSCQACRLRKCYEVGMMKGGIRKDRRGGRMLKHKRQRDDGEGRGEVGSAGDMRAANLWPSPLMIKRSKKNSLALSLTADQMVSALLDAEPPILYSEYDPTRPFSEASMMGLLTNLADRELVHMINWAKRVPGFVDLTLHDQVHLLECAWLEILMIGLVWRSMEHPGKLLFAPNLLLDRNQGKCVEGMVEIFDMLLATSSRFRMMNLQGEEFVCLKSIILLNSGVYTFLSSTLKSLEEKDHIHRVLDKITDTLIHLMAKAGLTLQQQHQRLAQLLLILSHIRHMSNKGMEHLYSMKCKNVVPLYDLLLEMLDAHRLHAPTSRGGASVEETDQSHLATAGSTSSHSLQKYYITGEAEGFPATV
The experiment in a line: Breast Cancer Cell ER-α In Cell Western Assay (SP1). It is filed as cell-based. To be noted: 4 or 24 hr post compound addition; for Emax: MCF7, SP1 antibody, read-out: ER-α In Cell Western Assay (SP1) Max Response; for DC50: SP1 antibody, read-out: ER-α In Cell Western Assay (SP1) IC50. A digest of the protocol: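 MCF-7 cells in charcoal-stripped FBS medium, treated with 11-point semilog dilutions (0.3–0.000003 μM final) for 4 or 24 h. Fixed cells immunostained with SP1 antibody (800 nm) and DRAQ5 DNA (700 nm); ER/DNA ratio expressed as % of untreated cells.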

By pIC50 is commonly meant the IC50 on a negative log10 scale, so that one unit is a factor of ten. A higher pIC50 goes with a small IC50.

`COc1cc(/C(=C(\c2ccccc2)C2CCC2)c2ccc3[nH]nc(F)c3c2)cnc1/C=C/C(=O)O` [Example 165, (E)-3-(5-((Z)-2-Cyclobutyl-1-(3-fluoro-1H-indazol-5-yl)-2-phenylvinyl)-3-methoxypyridin-2-yl)acrylic acid]: in assay [1], the “MCF7 Viability Assay Max Response” value is reported as “++ (++ = a single % value ≧ 40%)” and the negative-log IC50 (pIC50) was below 7.00. Moreover, in assay [2], the Emax is at least 40% and the DC50 is at most 100 nM.

Regarding `O=C(O)/C=C/c1ccc(/C(=C(\c2ccccc2)C2CCC2)c2ccc3[nH]nc(F)c3c2)c(Cl)c1` [Example 166, (E)-3-(3-Chloro-4-((Z)-2-cyclobutyl-1-(3-fluoro-1H-indazol-5-yl)-2-phenylvinyl)phenyl)acrylic acid], in assay [1], the “MCF7 Viability Assay Max Response” value is “++ (++ = a single % value ≧ 40%)” and the pIC50 is at least 7.00. Further, in assay [2], the Emax was at least 40% and the DC50 was at most 100 nM.

Consider `O=C(O)/C=C/c1ccc(/C(=C(\c2ccccc2)C2CCC2)c2ccc3[nH]nc(F)c3c2)cc1Cl` [Example 167, (E)-3-(2-Chloro-4-((Z)-2-cyclobutyl-1-(3-fluoro-1H-indazol-5-yl)-2-phenylvinyl)phenyl)acrylic acid], for which, in assay [1], the “MCF7 Viability Assay Max Response” value was “++ (++ = a single % value ≧ 40%)” and the pIC50 is at least 7.00. Also, in assay [2], the Emax is at least 40% and the DC50 was at most 100 nM.

As for `O=C(O)/C=C/c1ccc(/C(=C(\c2ccc(F)cc2Cl)C2CCC2)c2ccc3[nH]nc(F)c3c2)cn1` [Example 168, (E)-3-(5-((Z)-2-(2-Chloro-4-fluorophenyl)-2-cyclobutyl-1-(3-fluoro-1H-indazol-5-yl)vinyl)pyridin-2-yl)acrylic acid], in assay [1], the “MCF7 Viability Assay Max Response” value is “++ (++ = a single % value ≧ 40%)” and the pIC50 was at least 7.00. In assay [2], the Emax is at least 40% and the DC50 is at most 100 nM.

`O=C(O)/C=C/c1ccc(/C(=C(\c2ccccc2Cl)C2CCC2)c2ccc3[nH]nc(F)c3c2)cn1` [Example 169, (E)-3-(5-((Z)-2-(2-Chlorophenyl)-2-cyclobutyl-1-(3-fluoro-1H-indazol-5-yl)vinyl)pyridin-2-yl)acrylic acid]: in assay [1], the “MCF7 Viability Assay Max Response” value was “++ (++ = a single % value ≧ 40%)” and the pIC50 is at least 7.00. Moreover, in assay [2], the Emax was at least 40% and the DC50 is at most 100 nM.

As to `CC/C(=C(/c1ccc(/C=C/c2nnn[nH]2)cc1)c1ccc2[nH]nc(F)c2c1)c1ccc(F)cc1Cl` [Example 170, 5-((E)-1-(4-((E)-2-(2H-Tetrazol-5-yl)vinyl)phenyl)-2-(2-chloro-4-fluorophenyl)but-1-en-1-yl)-3-fluoro-1H-indazole], in assay [1], the “MCF7 Viability Assay Max Response” value is “++ (++ = a single % value ≧ 40%)” and the negative logarithm of the IC50 (pIC50) is at least 7.00. In addition, in assay [2], the Emax was at least 40% and the DC50 is at most 100 nM.

With `CC/C(=C(/c1ccc(/C=C/c2nnn[nH]2)cc1)c1ccc2[nH]nc(F)c2c1)c1ccncc1Cl` [Example 171, 5-((E)-1-(4-((E)-2-(2H-Tetrazol-5-yl)vinyl)phenyl)-2-(3-chloropyridin-4-yl)but-1-en-1-yl)-3-fluoro-1H-indazole], in assay [1], the “MCF7 Viability Assay Max Response” value is recorded as “++ (++ = a single % value ≧ 40%)” and the pIC50 is at least 7.00. Also, in assay [2], the Emax was at least 40% and the DC50 is at most 100 nM.

`Fc1n[nH]c2ccc(/C(=C(/c3ccncc3Cl)C3CCC3)c3ccc(/C=C/c4nnn[nH]4)cc3)cc12` [Example 172, 5-((E)-1-(4-((E)-2-(2H-Tetrazol-5-yl)vinyl)phenyl)-2-(3-chloropyridin-4-yl)-2-cyclobutylvinyl)-3-fluoro-1H-indazole]: in assay [1], the “MCF7 Viability Assay Max Response” value is recorded as “++ (++ = a single % value ≧ 40%)” and the negative-log IC50 (pIC50) was at least 7.00. In assay [2], the Emax was at least 40% and the DC50 was at most 100 nM.

Consider `Fc1ccc(/C(=C(\c2ccc(/C=C/c3nnn[nH]3)cc2)c2cccc3[nH]ncc23)C2CCC2)c(Cl)c1` [Example 173, 4-((E)-1-(4-((E)-2-(2H-Tetrazol-5-yl)vinyl)phenyl)-2-(2-chloro-4-fluorophenyl)-2-cyclobutylvinyl)-1H-indazole], for which, in assay [1], the “MCF7 Viability Assay Max Response” value is recorded as “++ (++ = a single % value ≧ 40%)” and the negative-log IC50 (pIC50) is at least 7.00. In addition, in assay [2], the Emax is at least 40% and the DC50 was at most 100 nM.

On to `Fc1n[nH]c2ccc(/C(=C(/c3ccccc3)C3CCC3)c3ccc(/C=C/c4nnn[nH]4)cc3)cc12` [Example 174, 5-((E)-1-(4-((E)-2-(1H-Tetrazol-5-yl)vinyl)phenyl)-2-cyclobutyl-2-phenylvinyl)-3-fluoro-1H-indazole], for which, in assay [1], the “MCF7 Viability Assay Max Response” value is “++ (++ = a single % value ≧ 40%)” and the negative-log IC50 (pIC50) was at least 7.00. Further, in assay [2], the Emax was at least 40% and the DC50 was at most 100 nM.

As for `Fc1ccc(/C(=C(\c2ccc(/C=C/c3nnn[nH]3)cc2)c2ccc3scnc3c2)C2CCC2)c(Cl)c1` [Example 175, 5-((E)-1-(4-((E)-2-(2H-Tetrazol-5-yl)vinyl)phenyl)-2-(2-chloro-4-fluorophenyl)-2-cyclobutylvinyl)benzo[d]thiazole], in assay [1], the “MCF7 Viability Assay Max Response” value is on record as “++ (++ = a single % value ≧ 40%)” and the pIC50 is at least 7.00. For the same compound, in assay [2], the Emax was at least 40% and the DC50 is at most 100 nM.

For `Clc1cnccc1/C(=C(\c1ccc(/C=C/c2nnn[nH]2)cc1)c1ccc2scnc2c1)C1CCC1` [Example 176, 5-((E)-1-(4-((E)-2-(2H-Tetrazol-5-yl)vinyl)phenyl)-2-(3-chloropyridin-4-yl)-2-cyclobutylvinyl)benzo[d]thiazole], in assay [1], the “MCF7 Viability Assay Max Response” value is listed as “++ (++ = a single % value ≧ 40%)” and the negative logarithm of the IC50 (pIC50) was at least 7.00. In addition, in assay [2], the Emax is at least 40% and the DC50 is at most 100 nM.

In the case of `Cc1cnccc1/C(=C(\c1ccc(/C=C/c2nnn[nH]2)cc1)c1ccc2scnc2c1)C1CCC1` [Example 177, 5-((E)-1-(4-((E)-2-(2H-Tetrazol-5-yl)vinyl)phenyl)-2-cyclobutyl-2-(3-methylpyridin-4-yl)vinyl)benzo[d]thiazole], in assay [1], the “MCF7 Viability Assay Max Response” value is on record as “++ (++ = a single % value ≧ 40%)” and the negative logarithm of the IC50 (pIC50) was at least 7.00. Also, in assay [2], the Emax is at least 40% and the DC50 is at most 100 nM.

Turning to `Fc1ccc(/C(=C(\c2ccc(/C=C/c3nnn[nH]3)cc2)c2ccc3nccn3c2)C2CCC2)c(Cl)c1` [Example 178, 6-((E)-1-(4-((E)-2-(2H-Tetrazol-5-yl)vinyl)phenyl)-2-(2-chloro-4-fluorophenyl)-2-cyclobutylvinyl)imidazo[1,2-a]pyridine], in assay [1], the “MCF7 Viability Assay Max Response” value is “++ (++ = a single % value ≧ 40%)” and the pIC50 was at least 7.00. In assay [2], the Emax was at least 40% and the DC50 was at most 100 nM.

`CC/C(=C(/c1ccc(/C=C/C(=O)NCCO)cc1)c1ccc2[nH]ncc2c1)c1ccc(F)cc1Cl` [Example 179, (E)-3-(4-((E)-2-(2-Chloro-4-fluorophenyl)-1-(1H-indazol-5-yl)but-1-en-1-yl)phenyl)-N-(2-hydroxyethyl)acrylamide]: in assay [1], the “MCF7 Viability Assay Max Response” value is “++ (++ = a single % value ≧ 40%)” and the pIC50 is at least 7.00. In addition, in assay [2], the Emax was at least 40% and the DC50 is at most 100 nM.

As for `Cc1cscc1/C(=C(\c1ccc(/C=C/C(=O)NCCO)cc1)c1ccc2scnc2c1)C1CCC1` [Example 180, (E)-3-(4-((E)-1-(Benzo[d]thiazol-5-yl)-2-cyclobutyl-2-(4-methylthiophen-3-yl)vinyl)phenyl)-N-(2-hydroxyethyl)acrylamide], in assay [1], the “MCF7 Viability Assay Max Response” value was “++ (++ = a single % value ≧ 40%)” and the negative-log IC50 (pIC50) was at least 7.00. Moreover, in assay [2], the Emax was at least 40% and the DC50 was at most 100 nM.

`Cc1cscc1/C(=C(\c1ccc(/C=C/C(=O)NCCO)cc1)c1ccc2[nH]nc(F)c2c1)C1CCC1` [Example 181, (E)-3-(4-((E)-2-Cyclobutyl-1-(3-fluoro-1H-indazol-5-yl)-2-(4-methylthiophen-3-yl)vinyl)phenyl)-N-(2-hydroxyethyl)acrylamide]: in assay [1], the “MCF7 Viability Assay Max Response” value was “++ (++ = a single % value ≧ 40%)” and the pIC50 is at least 7.00. In assay [2], the Emax is at least 40% and the DC50 was at most 100 nM.

`O=C(/C=C/c1ccc(/C(=C(\c2ccccc2)C2CCC2)c2ccc3[nH]nnc3c2)cc1)NCCO` [Example 182, (E)-3-(4-((E)-1-(1H-Benzo[d][1,2,3]triazol-5-yl)-2-cyclobutyl-2-phenylvinyl)phenyl)-N-(2-hydroxyethyl)acrylamide]: in assay [1], the “MCF7 Viability Assay Max Response” value is reported as “++ (++ = a single % value ≧ 40%)” and the negative-log IC50 (pIC50) is at least 7.00. In assay [2], the Emax is at least 40% and the DC50 is at most 100 nM.
